Assay results as given in ChEMBL document CHEMBL6121007, “Design, synthesis and evaluation of pyrimidine derivatives as sedative-hypnotic agents” (Eur J Med Chem, 2025).
Activity calls are given as the source filed them. The calls are words filed in the database; no cut-off is given here.

What was measured:
[1] = Ratio of drug concentration in male mouse brain to plasma at 10 mg/kg, ip measured after 1 hrs by LC-MS/MS analysis; assay type: ADME, organism-based; details: brain and plasma, read-out: BPR
Mus musculus [2] = assay: Upregulation of gap junction related genes in hypothalamus of mouse at 2.5 mg/kg, ip measured after 30 mins by KEGG enrichment analysis relative to control; assay type: functional; details: 0.5 h
[3] = Upregulation of Wnt signaling pathway related genes in hypothalamus of mouse at 2.5 mg/kg, ip measured after 30 mins by KEGG enrichment analysis relative to control; assay type: functional; details: 0.5 h
Mus musculus [4] = assay: Sedative-hypnotic activity in pentobarbital-induced mouse assessed as decrease in sleep latency at 0.2 to 5 mg/kg, ip; assay type: functional, organism-based; details: dose 0.2-5 mg/kg
[5] = Half life in male Sprague-Dawley rat at 2.5 mg/kg, ip measured after 5 to 1440 mins by LC-MS/MS analysis; assay type: ADME, organism-based; details: in vivo, time 5-1440 min
Mus musculus [6] = assay: Upregulation of serine metabolism related genes in hypothalamus of mouse at 2.5 mg/kg, ip measured after 30 mins by KEGG enrichment analysis relative to control; assay type: functional; details: 0.5 h
[7] = Upregulation of human papillomavirus infection related genes in hypothalamus of mouse at 2.5 mg/kg, ip measured after 30 mins by KEGG enrichment analysis relative to control; assay type: functional; details: 0.5 h

CCn1c2ccccc2c2cc(Nc3ccnc(Nc4ccc(C)c(OC)c4)n3)ccc21
Kp at 1 h [1]: 0.2
Activity (Mus musculus [2]): 2.89%
Activity [3]: 4.05%
Activity (Mus musculus [4]): Active
half-life [5]: 4.56 h
Activity (Mus musculus [6]): 1.73%
Activity [7]: 6.36%
